30 compounds from patent publication US10604489B2, “Compounds for the treatment of pain” (priority 2018, dated 2020) can be followed below.

One test has as its target μ-receptor (Homo sapiens (Human), UniProt P35372). Description: Receptor binding, competitive displacement of [3H]DAMGO. To be noted: 0.25 nM [3H]DAMGO, CHO cell membrane protein, 60 min at 25° C. Here is the method:
The Ki (binding affinity) for μ-receptor was determined with a previously described method using a competitive displacement assay (Neumeyer et al., J. Med. Chem., v. 46, p. 5162-5170, 2003). Membrane protein from CHO (Chinese Hamster Ovarian) cells that stably expressed one type of the cloned human opioid receptor were incubated with 12 different concentrations of the compound in the presence of 0.25 nM [3H]DAMGO, 0.2 nM [3H]naltrindole or 1 nM [3H]U69,593 in a final volume of 1 mL of 50 mM Tris-HCl, pH 7.5 at 25° C. Incubation times of 60 min were used for [3H]DAMGO and [3H]U69,593. Because of a slower association of [3H]naltrindole with the receptor, a 3 h incubation was used with this radioligand. Samples incubated with [3H]naltrindole also contained 10 mM MgCl2 and 0.5 mM phenylmethylsulfonyl fluoride. Nonspecific binding was measured by inclusion of 10 μM naloxone. The binding was terminated by filtering the samples through Schleicher & Schuell No. 32 glass fiber filters using a Brandel 48-well cell harvester. The filters were subsequently washed three times with 3 mL of cold 50 mM Tris-HCl, pH 7.5, and were counted in 2 mL Ecoscint A scintillation fluid. For [3H]naltrindole and [3H]U69,593 binding, the filters were soaked in 0.1% polyethylenimine for at least 60 min before use. IC50 values will be calculated by least squares fit to a logarithm-probit analysis. Ki values of unlabelled compounds were calculated from the equation Ki=(IC50)/1+S where S=(concentration of radioligand)/(Kd of radioligand) (Cheng and Prusoff, Biochemical Pharmacology, v. 22, p. 3099-3108, 1973).
For orientation: In a radioligand displacement assay an active substance lowers the binding of a labelled ligand.

Another test deals with human μ opioid receptor (Homo sapiens (Human), UniProt P35372). Kind of test: Functional activity ([35S]GTPγS binding). The class given is biochemical. The note with it: [35S]GTPγS 0.080 nM, CHO cell membranes, 60 min at 30° C., filtration. As to the method:
The [^35S]GTPγS assay measures the functional properties of a compound by quantifying the level of G-protein activation following agonist binding in studies using stably transfected cells, and is considered to be a measure of the efficacy of a compound. Membranes from CHO (Chinese Hamster Ovary) cells that stably expressed one type of the cloned human opioid receptor human were used in the experiments. In a final volume of 0.5 mL, 12 different concentrations of each test compound were incubated with 7.5 μg of CHO cell membranes that stably expressed the human p opioid receptor. The assay buffer consisted of 50 mM Tris-HCl, pH 7.4, 3 mM MgCl2, 0.2 mM EGTA, 3 μM GDP, and 100 mM NaCl. The final concentration of [35S]GTPγS was 0.080 nM. Nonspecific binding was measured by inclusion of 10 μM GTPγS. Binding was initiated by the addition of the membranes. After an incubation of 60 min at 30° C., the samples were filtered through Schleicher & Schuell No. 32 glass fiber filters. The filters were washed three times with cold 50 mM Tris-HCl, pH 7.5, and were counted in 2 mL of Ecoscint scintillation fluid.
On the technique in general: GTPγS is a poorly hydrolysed GTP analogue; its binding reports G protein activation.

A word on the Ki: it is the dissociation constant of the complex between target and ligand, obtained from inhibition or displacement. The EC50 is the midpoint of the concentration-response curve. Lower therefore signals greater potency.

The structures appear in SMILES notation. Where a name gives a salt, the structure may show the parent alone. A value given as a limit tells only on which side of the number the result lay.

The compound `COC1(c2cccc(C(N)=O)c2)C2CCCC1CN(C1CC3CCC(C1)O3)C2` (single isomer, unassigned) [Compound 14, hydrochloride] registered a Ki at μ-receptor of 1 to 5 nM. On human μ opioid receptor, this compound returned an EC50 above 75 nM. Turning to `COC[C@H](C)N1CC2CCCC(C1)C2(OC)c1ccnc(C(N)=O)c1.Cl` (single isomer, unassigned) [Compound 61, hydrochloride], the Ki at μ-receptor fell in the range of 1 to 5 nM. Besides, at human μ opioid receptor, the EC50 fell in the range of 10 to 75 nM. The compound `COC[C@@H](C)N1CC2CCCC(C1)C2(OC)c1ccnc(C(N)=O)c1` (single isomer, unassigned) [Compound 62, hydrochloride] returned a Ki on μ-receptor above 5 nM. This compound yielded a 50% effective concentration (EC50) on human μ opioid receptor above 75 nM.

Take `CCC[C@H](C)N1CC2CCCC(C1)C2(OC)c1ccnc(C(N)=O)c1` (single isomer, unassigned) [Compound 134, hydrochloride]: the inhibitory constant (Ki) on μ-receptor is below 1 nM. The compound further had an EC50 at human μ opioid receptor of 10 to 75 nM. In the same order, the values of `COC1(c2ccnc(C(N)=O)c2)C2CCCC1CN(C[C@@H]1CCCO1)C2` (single isomer, unassigned) [Compound 135, hydrochloride] are 1 to 5 nM and 10 to 75 nM.

Regarding `COC1(c2ccnc(C(N)=O)c2)C2CCCC1CN(C[C@H]1CCCO1)C2.Cl` (single isomer, unassigned) [Compound 136, hydrochloride], on μ-receptor, the Ki is above 5 nM. On human μ opioid receptor, this compound returned an EC50 of 10 to 75 nM. For the compound `CCC[C@@H](C)N1CC2CCCC(C1)C2(OC)c1ccnc(C(N)=O)c1` (single isomer, unassigned) [Compound 137, hydrochloride], the Ki at μ-receptor lay in the range of 1 to 5 nM. This compound also registered an EC50 on human μ opioid receptor of 10 to 75 nM. In turn, `COC1(c2cccc(C(N)=O)c2)C2CCCC1CN([C@H]1CCCOC1)C2.Cl` (single isomer, unassigned) [Compound 140, hydrochloride] yielded a Ki on μ-receptor below 1 nM. The EC50 at human μ opioid receptor was 10 to 75 nM. In the same order, the values of `COC1(c2cccc(C(N)=O)c2)C2CCCC1CN([C@@H]1CCCOC1)C2` (single isomer, unassigned) [Compound 141, hydrochloride] are below 1 nM and 10 to 75 nM. In the case of `COC1(c2cccc(C(N)=O)c2)C2CCCC1CN(C[C@@H]1CCOC1)C2.Cl` (single isomer, unassigned) [Compound 143, hydrochloride], the Ki on μ-receptor is below 1 nM. The compound also displayed a half-maximal effective concentration (EC50) at human μ opioid receptor below 10 nM. Regarding `COC1(c2ccnc(C(N)=O)c2)C2CCCC1CN([C@H]1CC[C@@H]1C)C2` (single isomer, unassigned) [Compound 144, hydrochloride], at μ-receptor, the Ki was below 1 nM. Moreover, on human μ opioid receptor, the EC50 is 10 to 75 nM.

Compound `COC1(c2ccnc(C(N)=O)c2)C2CCCC1CN(CCS(C)(=O)=O)C2` [Compound 8, 4-((1R,5S,9r)-9-methoxy-3-(2-(methylsufonyl)ethyl)-3-azabicyclo[3.3.1]nonan-9-yl)picolinamide hydrochloride] came in with a Ki on μ-receptor above 5 nM. Still for that read-out and setting: the same measure for `COC1(c2ccnc(C(N)=O)c2)C2CCCC1CN(CC1(F)CCOCC1)C2` [Compound 15, 4-((1R,5S,9r)-34(4-fluorotetrahydro-2H-pyran-4-yl)methyl)-9-methoxy-3-azabicyclo[3.3.1]nonan-9-yl)picolinamide hydrochloride]: above 5 nM; for `COC1(c2cccc(C(N)=O)c2)C2CCCC1CN(C(C)C)C2` [Compound 25, 3-((1R,5S,9r)-3-isopropyl-9-methoxy-3-azabicyclo[3.3.1]nonan-9-yl)benzamide hydrochloride]: below 1 nM; for `COC1(c2cncc(C(N)=O)c2)C2CCCC1CN(CC1CC1)C2` [Compound 28, 5-((1R,5S,9r)-3-(cyclopropylmethyl)-9-methoxy-3-azabicyclo[3.3.1]nonan-9-yl)nicotinamide hydrochloride]: above 5 nM.

On μ-receptor, `COC1(c2ccc(C(N)=O)cc2)C2CCCC1CN(CC1CC1)C2` [Compound 31, 4-((1R,5S,9r)-3-(cyclopropylmethyl)-9-methoxy-3-azabicyclo[3.3.1]nonan-9-yl)benzamide hydrochloride] registered a Ki above 5 nM. The same measure, in the same setting: the same measure for `COC1(c2cccc(C(N)=O)c2)C2CCCC1CN(CC(F)(F)F)C2` [Compound 32, 3-((1R,5S,9r)-9-methoxy-3-(2,2,2-trifluoroethyl)-3-azabicyclo[3.3.1]nonan-9-yl)benzamide hydrochloride]: above 5 nM; for `COC1(c2cccc(C(N)=O)n2)C2CCCC1CN(C)C2` [Compound 33, 6-((1R,5S,9r)-9-methoxy-3-methyl-3-azabicyclo[3.3.1]nonan-9-yl)picolinamide hydrochloride]: above 5 nM; for `COC1(c2ccc(F)c(C(N)=O)c2)C2CCCC1CN(C)C2` [Compound 41, 2-fluoro-5-((1R,5S,9r)-9-methoxy-3-methyl-3-azabicyclo[3.3.1]nonan-9-yl)benzamide hydrochloride]: above 5 nM. In turn, `COC1(c2cc(C(N)=O)ccn2)C2CCCC1CN(C)C2` [Compound 44, 2-((1R,5S,9r)-9-methoxy-3-methyl-3-azabicyclo[3.3.1]nonan-9-yl)isonicotinamide hydrochloride] came in with a Ki at μ-receptor of 1 to 5 nM. Same read-out and setting: the same measure for `COC1(c2cc(O)cc(C(N)=O)c2)C2CCCC1CN(C)C2` [Compound 52, 3-hydroxy-5-((1R,5S,9r)-9-methoxy-3-methyl-3-azabicyclo[3.3.1]nonan-9-yl)benzamide hydrochloride]: above 5 nM; for `COC1(c2cc(C(N)=O)cs2)C2CCCC1CN(CC1CC1)C2` [Compound 59, 5-((1R,5S,9r)-3-(cyclopropylmethyl)-9-methoxy-3-azabicyclo[3.3.1]nonan-9-yl)thiophene-3-carboxamide hydrochloride]: 1 to 5 nM. With `COC1(c2ccnc(C(N)=O)c2)C2CCCC1CN(CCN1CCOC1=O)C2` [Compound 80, 4-((1R,5S,9r)-9-methoxy-3-(2-(2-oxooxazolidin-3-yl)ethyl)-3-azabicyclo[3.3.1]nonan-9-yl)picolinamide hydrochloride], on μ-receptor, the Ki was above 5 nM. On the same count and under the same terms, to `COC1(c2ccnc(C(N)=O)c2)C2CCCC1CN(C1CN(C(C)=O)C1)C2` [Compound 84, 4-((1R,5S,9r)-3-(1-acetylazetidin-3-yl)-9-methoxy-3-azabicyclo[3.3.1]nonan-9-yl)picolinamide hydrochloride] belongs above 5 nM; to `COC1(c2ccnc(C(N)=O)c2)C2CCCC1CN(CC(C)(C)C)C2` [Compound 105, 4-((1R,5S,9r)-9-methoxy-3-neopentyl-3-azabicyclo[3.3.1]nonan-9-yl)picolinamide hydrochloride], above 5 nM. On the same count and under the same terms, to `COC1(c2ccnc(C(N)=O)c2)C2CCCC1CN([C@@H]1CC[C@@H]1c1ccccc1)C2` (stereo partly drawn) [Compound 110, 4-((1R,5S,9R)-9-methoxy-3-((1R,2R)-2-phenylcyclobutyl)-3-azabicyclo[3.3.1]nonan-9-yl)picolinamide hydrochloride] belongs above 5 nM; to `COC1(c2ccnc(C(N)=O)c2)C2CCCC1CN([C@H]1CC[C@H]1c1ccccc1)C2` (stereo partly drawn) [Compound 116, 4-((1R,5S,9s)-9-methoxy-3-((1S,2S)-2-phenylcyclobutyl)-3-azabicyclo[3.3.1]nonan-9-yl)picolinamide (S)-2-hydroxysuccinate], above 5 nM. `COC1(c2ccnc(C(N)=O)c2)C2CCCC1CN(Cc1cc3ccccc3[nH]1)C2` [Compound 119, 4-((1R,5S,9r)-3-((1H-indol-2-yl)methyl)-9-methoxy-3-azabicyclo[3.3.1]nonan-9-yl)picolinamide (S)-2-hydroxysuccinate] yielded an EC50 at human μ opioid receptor below 10 nM. The compound `COC1(c2ccnc(C(N)=O)c2)C2CCCC1CN(Cc1cccc(=O)[nH]1)C2` [Compound 120, 4-((1R,5S,9r)-34(6-hydroxypyridin-2-yl)methyl)-9-methoxy-3-azabicyclo[3.3.1]nonan-9-yl)picolinamide hydrochloride] gave an inhibition constant Ki at μ-receptor above 5 nM. The same measure, in the same setting: the same measure for `COC1(c2ccnc(C(N)=O)c2)C2CCCC1CN(Cc1cnnn1C)C2` [Compound 125, 4-((1R,5S,9r)-9-methoxy-3-((1-methyl-1H-1,2,3-triazol-5-yl)methyl)-3-azabicyclo[3.3.1]nonan-9-yl)picolinamide hydrochloride]: above 5 nM.
